Assay results from the NIST ThermoML archive (doi:10.1021/acs.jced.6b00536).
Where “and” joins values, the source holds several entries; their conditions need not be identical. Equal entries are not always repeated.

Conditions: Gas, Frequency=0.05 MHz, Single path-length method

FC(F)(F)C(F)(F)C(F)(F)F [octafluoropropane]
Conditions | speed of sound
287.9 K, 253.6 kPa | 109.81 m/s
287.9 K, 261.1 kPa | 109.59 m/s
287.9 K, 284.7 kPa | 108.91 m/s
293.2 K, 73.1 kPa | 115.72 m/s
293.2 K, 84.2 kPa | 115.45 m/s
293.2 K, 84.3 kPa | 115.46 m/s
293.2 K, 94.5 kPa | 115.2 m/s
293.2 K, 94.6 kPa | 115.21 m/s
293.2 K, 105.6 kPa | 114.93 m/s and 114.94 m/s
293.2 K, 120.1 kPa | 114.57 m/s
293.2 K, 139.6 kPa | 114.1 m/s
293.2 K, 169.6 kPa | 113.36 m/s
293.2 K, 198.9 kPa | 112.61 m/s
293.2 K, 231.3 kPa | 111.79 m/s
293.2 K, 231.4 kPa | 111.79 m/s
293.2 K, 258.8 kPa | 111.04 m/s
293.2 K, 258.9 kPa | 111.05 m/s
293.2 K, 266.6 kPa | 110.85 m/s
293.2 K, 266.7 kPa | 110.86 m/s
293.2 K, 290.7 kPa | 110.18 m/s
293.2 K, 290.8 kPa | 110.19 m/s
298.4 K, 74.5 kPa | 116.78 m/s
298.4 K, 85.8 kPa | 116.53 m/s
298.4 K, 96.3 kPa | 116.29 m/s
298.4 K, 107.6 kPa | 116.05 m/s
298.4 K, 122.4 kPa | 115.7 m/s
298.4 K, 142.2 kPa | 115.21 m/s
298.4 K, 172.8 kPa | 114.5 m/s
298.4 K, 202.9 kPa | 113.8 m/s
298.4 K, 235.9 kPa | 112.97 m/s
298.4 K, 264.2 kPa | 112.28 m/s
298.4 K, 272.1 kPa | 112.08 m/s
298.4 K, 296.8 kPa | 111.46 m/s
303.7 K, 75.8 kPa | 117.86 m/s
303.7 K, 87.4 kPa | 117.61 m/s
303.7 K, 98.1 kPa | 117.39 m/s
303.7 K, 109.5 kPa | 117.14 m/s
303.7 K, 124.7 kPa | 116.78 m/s
303.7 K, 144.9 kPa | 116.33 m/s
303.7 K, 176.2 kPa | 115.66 m/s
303.7 K, 206.7 kPa | 114.96 m/s
303.7 K, 240.6 kPa | 114.17 m/s
303.7 K, 269.4 kPa | 113.49 m/s
303.7 K, 277.6 kPa | 113.32 m/s
308.9 K, 77.1 kPa | 118.9 m/s
308.9 K, 88.9 kPa | 118.66 m/s
308.9 K, 99.8 kPa | 118.44 m/s
308.9 K, 111.5 kPa | 118.19 m/s
308.9 K, 127 kPa | 117.87 m/s
308.9 K, 147.5 kPa | 117.44 m/s
308.9 K, 179.4 kPa | 116.75 m/s
308.9 K, 210.6 kPa | 116.08 m/s
308.9 K, 245.2 kPa | 115.33 m/s
308.9 K, 274.7 kPa | 114.68 m/s
308.9 K, 283 kPa | 114.5 m/s
314.1 K, 78.5 kPa | 119.93 m/s
314.1 K, 90.4 kPa | 119.69 m/s
314.1 K, 101.6 kPa | 119.47 m/s
314.1 K, 113.4 kPa | 119.24 m/s
314.1 K, 129.2 kPa | 118.93 m/s
314.1 K, 150.2 kPa | 118.52 m/s
314.1 K, 182.7 kPa | 117.85 m/s
314.1 K, 214.5 kPa | 117.21 m/s
314.1 K, 249.8 kPa | 116.47 m/s
314.1 K, 279.9 kPa | 115.84 m/s
314.1 K, 288.4 kPa | 115.67 m/s
319.4 K, 79.8 kPa | 120.96 m/s
319.4 K, 92 kPa | 120.74 m/s
319.4 K, 103.3 kPa | 120.52 m/s
319.4 K, 115.4 kPa | 120.29 m/s
319.4 K, 131.4 kPa | 119.98 m/s
319.4 K, 152.8 kPa | 119.58 m/s
319.4 K, 185.9 kPa | 118.95 m/s
319.4 K, 218.4 kPa | 118.33 m/s
319.4 K, 254.4 kPa | 117.62 m/s
319.4 K, 285.1 kPa | 117.02 m/s
319.4 K, 293.8 kPa | 116.85 m/s
324.6 K, 81.2 kPa | 121.98 m/s
324.6 K, 93.5 kPa | 121.75 m/s
324.6 K, 105.1 kPa | 121.56 m/s
324.6 K, 117.4 kPa | 121.32 m/s
324.6 K, 133.7 kPa | 121.03 m/s
324.6 K, 155.4 kPa | 120.64 m/s
324.6 K, 189.2 kPa | 120.02 m/s
324.6 K, 222.3 kPa | 119.43 m/s
324.6 K, 259 kPa | 118.74 m/s
324.6 K, 290.3 kPa | 118.16 m/s
324.6 K, 299.2 kPa | 117.99 m/s
